By IC50 is commonly meant the concentration that gives 50% inhibition.

Where only a bound is given, the exact number is not on record here.

The target of the assay is Prostaglandin G/H synthase 2 (Homo sapiens) (UniProt P35354). In words: Inhibition of human COX2 assessed as reduction in PGF2alpha production by ELISA.
Prostaglandin G/H synthase 2 (Homo sapiens), sequence (P35354 whole entry, looked up): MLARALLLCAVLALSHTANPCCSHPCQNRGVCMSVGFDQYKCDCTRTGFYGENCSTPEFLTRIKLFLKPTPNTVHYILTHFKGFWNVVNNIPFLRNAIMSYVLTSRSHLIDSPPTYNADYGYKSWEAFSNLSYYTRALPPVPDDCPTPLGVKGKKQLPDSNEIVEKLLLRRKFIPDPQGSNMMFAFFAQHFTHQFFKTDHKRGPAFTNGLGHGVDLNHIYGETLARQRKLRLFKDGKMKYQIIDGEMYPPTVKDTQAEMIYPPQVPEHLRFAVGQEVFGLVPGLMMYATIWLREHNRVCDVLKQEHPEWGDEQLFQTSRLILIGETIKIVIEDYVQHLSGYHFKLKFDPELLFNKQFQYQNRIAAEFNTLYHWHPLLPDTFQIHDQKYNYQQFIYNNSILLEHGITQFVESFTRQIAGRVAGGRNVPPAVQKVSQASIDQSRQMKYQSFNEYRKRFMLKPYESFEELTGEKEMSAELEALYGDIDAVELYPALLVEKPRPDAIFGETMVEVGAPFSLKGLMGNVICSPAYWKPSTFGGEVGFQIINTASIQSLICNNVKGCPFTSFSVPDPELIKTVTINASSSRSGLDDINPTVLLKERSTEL

Turning to `COc1ccc(Cn2nnc(O)c2C(=O)Nc2cccc(C(F)(F)F)c2)cc1`, the 50% inhibitory concentration (IC50) was over 100 µM.

For the compound `O=C(Nc1cccc(C(F)(F)F)c1)c1c(O)nnn1CC1CC1`, the concentration for half-maximal inhibition (IC50) was over 100 µM.

In the case of `O=C(Nc1cccc(C(F)(F)F)c1)c1c(O)nnn1Cc1ccccc1`, the IC50 was over 100 µM.
